This passage reports relative viability results from the supplement of paper PMC10307832.

Each structure is given as a SMILES string.

The subject of the first experiment is NCI-H647. Put plainly: relative viability (nuclei count vs DMSO), 5 days (fraction); higher = more cells survive. As to conditions: first compound 0.2 µM. An outline of the steps: (§1)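 Dosing by pin tool came one day after lung cancer cell lines were seeded in 1536-well plates, using either one drug or a fixed anchor-drug dose plus five library-drug doses (not always all listed) in √10 steps. After 5 days, nuclei were counted on 4× images. Relative viability is treated-well nuclei count divided by vehicle-well nuclei count, and values are medians of duplicate plates.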
Molecule `COCC1(CO)C(=O)C2CCN1CC2` (stereo not drawn) [PRIMA-1MET] + CCNC(=O)c1noc(-c2cc(C(C)C)c(O)cc2O)c1-c1ccc(CN2CCOCC2)cc1 [Luminespib] (partner 0.01 µM) displayed a relative viability of 0.181.
Consider `COCC1(CO)C(=O)C2CCN1CC2` (stereo not drawn) [PRIMA-1MET] + COc1cccc2cc(-c3nc([C@H]4CC[C@H](C(=O)O)CC4)n4ncnc(N)c34)[nH]c12 [OSI-027] (partner 0.5 µM), for which the relative viability was determined as 0.684.
`COCC1(CO)C(=O)C2CCN1CC2` (stereo not drawn) [PRIMA-1MET] + N=C(N)NC(=N)NCCc1ccccc1 [Phenformin] (partner 250 µM) returned a relative viability of 0.405.
On the same count and under the same terms, the result for `COCC1(CO)C(=O)C2CCN1CC2` (stereo not drawn) [PRIMA-1MET] + Nc1nc2[nH]cc(CCc3ccc(C(=O)N[C@@H](CCC(=O)O)C(=O)O)cc3)c2c(=O)[nH]1 [Pemetrexed] (partner 0.2 µM) reads 0.19; that for `COCC1(CO)C(=O)C2CCN1CC2` (stereo not drawn) [PRIMA-1MET] + Cc1nc(Nc2ncc(C(=O)Nc3c(C)cccc3Cl)s2)cc(N2CCN(CCO)CC2)n1 [Dasatinib] (partner 0.075 µM), 0.165.

Staying with this experiment, now noted: first compound 0.6325 µM.
In the case of `COCC1(CO)C(=O)C2CCN1CC2` (stereo not drawn) [PRIMA-1MET] + CCNC(=O)c1noc(-c2cc(C(C)C)c(O)cc2O)c1-c1ccc(CN2CCOCC2)cc1 [Luminespib] (partner 0.01 µM), the relative viability turned out to be 0.224.
On the same count and under the same terms, the result for `COCC1(CO)C(=O)C2CCN1CC2` (stereo not drawn) [PRIMA-1MET] + COc1cccc2cc(-c3nc([C@H]4CC[C@H](C(=O)O)CC4)n4ncnc(N)c34)[nH]c12 [OSI-027] (partner 0.5 µM) reads 0.837; that for `COCC1(CO)C(=O)C2CCN1CC2` (stereo not drawn) [PRIMA-1MET] + N=C(N)NC(=N)NCCc1ccccc1 [Phenformin] (partner 250 µM), 0.546.
On the same count and under the same terms, then `COCC1(CO)C(=O)C2CCN1CC2` (stereo not drawn) [PRIMA-1MET] + Nc1nc2[nH]cc(CCc3ccc(C(=O)N[C@@H](CCC(=O)O)C(=O)O)cc3)c2c(=O)[nH]1 [Pemetrexed] (partner 0.2 µM), with 0.152; and `COCC1(CO)C(=O)C2CCN1CC2` (stereo not drawn) [PRIMA-1MET] + Cc1nc(Nc2ncc(C(=O)Nc3c(C)cccc3Cl)s2)cc(N2CCN(CCO)CC2)n1 [Dasatinib] (partner 0.075 µM), with 0.16.

The same experiment, now with this note: first compound 2 µM.
`COCC1(CO)C(=O)C2CCN1CC2` (stereo not drawn) [PRIMA-1MET] + COc1cccc2cc(-c3nc([C@H]4CC[C@H](C(=O)O)CC4)n4ncnc(N)c34)[nH]c12 [OSI-027] (partner 0.5 µM) displayed a relative viability of 0.508.
Same read-out and setting: the result for `COCC1(CO)C(=O)C2CCN1CC2` (stereo not drawn) [PRIMA-1MET] + N=C(N)NC(=N)NCCc1ccccc1 [Phenformin] (partner 250 µM) reads 0.453; that for `COCC1(CO)C(=O)C2CCN1CC2` (stereo not drawn) [PRIMA-1MET] + Nc1nc2[nH]cc(CCc3ccc(C(=O)N[C@@H](CCC(=O)O)C(=O)O)cc3)c2c(=O)[nH]1 [Pemetrexed] (partner 0.2 µM), 0.19; that for `COCC1(CO)C(=O)C2CCN1CC2` (stereo not drawn) [PRIMA-1MET] + Cc1nc(Nc2ncc(C(=O)Nc3c(C)cccc3Cl)s2)cc(N2CCN(CCO)CC2)n1 [Dasatinib] (partner 0.075 µM), 0.156.

Still in this experiment, the particulars now being: first compound 6.325 µM.
Take `COCC1(CO)C(=O)C2CCN1CC2` (stereo not drawn) [PRIMA-1MET] + CCNC(=O)c1noc(-c2cc(C(C)C)c(O)cc2O)c1-c1ccc(CN2CCOCC2)cc1 [Luminespib] (partner 0.01 µM): the relative viability turned out to be 0.219.
The same measure, in the same setting: then `COCC1(CO)C(=O)C2CCN1CC2` (stereo not drawn) [PRIMA-1MET] + COc1cccc2cc(-c3nc([C@H]4CC[C@H](C(=O)O)CC4)n4ncnc(N)c34)[nH]c12 [OSI-027] (partner 0.5 µM), with 0.56; and `COCC1(CO)C(=O)C2CCN1CC2` (stereo not drawn) [PRIMA-1MET] + N=C(N)NC(=N)NCCc1ccccc1 [Phenformin] (partner 250 µM), with 0.514.
The same measure, in the same setting: then `COCC1(CO)C(=O)C2CCN1CC2` (stereo not drawn) [PRIMA-1MET] + Nc1nc2[nH]cc(CCc3ccc(C(=O)N[C@@H](CCC(=O)O)C(=O)O)cc3)c2c(=O)[nH]1 [Pemetrexed] (partner 0.2 µM), with 0.173; and `COCC1(CO)C(=O)C2CCN1CC2` (stereo not drawn) [PRIMA-1MET] + Cc1nc(Nc2ncc(C(=O)Nc3c(C)cccc3Cl)s2)cc(N2CCN(CCO)CC2)n1 [Dasatinib] (partner 0.075 µM), with 0.173.

Staying with this experiment, now noted: first compound 20 µM.
`COCC1(CO)C(=O)C2CCN1CC2` (stereo not drawn) [PRIMA-1MET] + CCNC(=O)c1noc(-c2cc(C(C)C)c(O)cc2O)c1-c1ccc(CN2CCOCC2)cc1 [Luminespib] (partner 0.01 µM): the relative viability amounted to 0.0932.
The same measure, in the same setting: then `COCC1(CO)C(=O)C2CCN1CC2` (stereo not drawn) [PRIMA-1MET] + COc1cccc2cc(-c3nc([C@H]4CC[C@H](C(=O)O)CC4)n4ncnc(N)c34)[nH]c12 [OSI-027] (partner 0.5 µM), with 0.105; and `COCC1(CO)C(=O)C2CCN1CC2` (stereo not drawn) [PRIMA-1MET] + N=C(N)NC(=N)NCCc1ccccc1 [Phenformin] (partner 250 µM), with 0.0596; and `COCC1(CO)C(=O)C2CCN1CC2` (stereo not drawn) [PRIMA-1MET] + Nc1nc2[nH]cc(CCc3ccc(C(=O)N[C@@H](CCC(=O)O)C(=O)O)cc3)c2c(=O)[nH]1 [Pemetrexed] (partner 0.2 µM), with 0.124.
`COCC1(CO)C(=O)C2CCN1CC2` (stereo not drawn) [PRIMA-1MET] + Cc1nc(Nc2ncc(C(=O)Nc3c(C)cccc3Cl)s2)cc(N2CCN(CCO)CC2)n1 [Dasatinib] (partner 0.075 µM) showed a relative viability of 0.0339.

The subject of a further experiment is NCI-H1793. The experiment is described as above. As to conditions: first compound 0.2 µM. An outline of the steps: as §1
In the case of `COCC1(CO)C(=O)C2CCN1CC2` (stereo not drawn) [PRIMA-1MET] + CCNC(=O)c1noc(-c2cc(C(C)C)c(O)cc2O)c1-c1ccc(CN2CCOCC2)cc1 [Luminespib] (partner 0.01 µM), the relative viability was 0.138.
Still for that read-out and setting: then `COCC1(CO)C(=O)C2CCN1CC2` (stereo not drawn) [PRIMA-1MET] + COc1cccc2cc(-c3nc([C@H]4CC[C@H](C(=O)O)CC4)n4ncnc(N)c34)[nH]c12 [OSI-027] (partner 0.5 µM), with 0.255.
On the same count and under the same terms, the result for `COCC1(CO)C(=O)C2CCN1CC2` (stereo not drawn) [PRIMA-1MET] + N=C(N)NC(=N)NCCc1ccccc1 [Phenformin] (partner 250 µM) reads 0.465.
On the same count and under the same terms, then `COCC1(CO)C(=O)C2CCN1CC2` (stereo not drawn) [PRIMA-1MET] + Nc1nc2[nH]cc(CCc3ccc(C(=O)N[C@@H](CCC(=O)O)C(=O)O)cc3)c2c(=O)[nH]1 [Pemetrexed] (partner 0.2 µM), with 0.964; and `COCC1(CO)C(=O)C2CCN1CC2` (stereo not drawn) [PRIMA-1MET] + Cc1nc(Nc2ncc(C(=O)Nc3c(C)cccc3Cl)s2)cc(N2CCN(CCO)CC2)n1 [Dasatinib] (partner 0.075 µM), with 0.431.

The same experiment, now with this note: first compound 0.6325 µM.
For `COCC1(CO)C(=O)C2CCN1CC2` (stereo not drawn) [PRIMA-1MET] + CCNC(=O)c1noc(-c2cc(C(C)C)c(O)cc2O)c1-c1ccc(CN2CCOCC2)cc1 [Luminespib] (partner 0.01 µM), the relative viability was 0.177.
Still for that read-out and setting: the result for `COCC1(CO)C(=O)C2CCN1CC2` (stereo not drawn) [PRIMA-1MET] + COc1cccc2cc(-c3nc([C@H]4CC[C@H](C(=O)O)CC4)n4ncnc(N)c34)[nH]c12 [OSI-027] (partner 0.5 µM) reads 0.221.
The same measure, in the same setting: the result for `COCC1(CO)C(=O)C2CCN1CC2` (stereo not drawn) [PRIMA-1MET] + N=C(N)NC(=N)NCCc1ccccc1 [Phenformin] (partner 250 µM) reads 0.32; that for `COCC1(CO)C(=O)C2CCN1CC2` (stereo not drawn) [PRIMA-1MET] + Nc1nc2[nH]cc(CCc3ccc(C(=O)N[C@@H](CCC(=O)O)C(=O)O)cc3)c2c(=O)[nH]1 [Pemetrexed] (partner 0.2 µM), 0.803.
